Laboratory results published in patent publication US12606541B2, “PPARg modulators and methods of use” (Eisai R&D Management Co., Ltd., priority 2020, dated 2026).
pIC50: −log10 of the molar value. Read-outs that look alike come from different tables or passages of the source.

Assays:
UM-UC-9 engineered cells = assay: Cell proliferation / short-term viability assay, CellTiter-Glo 144 h; type: cell-based, human; settings: read-out: CTGlo 144 h UMUC9.5, G150
Method in brief: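 UM-UC-9 engineered assay-ready cells seeded at 500 cells/well in high-glucose DMEM/10% FBS, treated from dose-response plates, grown at 37° C, 5% CO2. CellTiter-Glo 2.0 luminescence read on day 7, with a day-0 pretreatment plate as T0 reference and DMSO wells as negative control.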

His6-TEV-PPARγ-(234-505) = target: T1, His6-TEV-PPARγ-(234-505) (Homo sapiens, UniProt P37231); assay: TR-FRET Assay to Measure Co-R Peptide Recruitment to PPARγ; type: biochemical; settings: Co-R peptide (SMRT-ID2) recruitment; top final concentration 20 μM; read-out: TR-FRET i-Ag; AC50
T1 construct: The His6-TEV-PPARγ-(234-505) protein for assay was expressed and purified; TEV cleavage site (N); made in house
T1 sequence (P37231 234-505): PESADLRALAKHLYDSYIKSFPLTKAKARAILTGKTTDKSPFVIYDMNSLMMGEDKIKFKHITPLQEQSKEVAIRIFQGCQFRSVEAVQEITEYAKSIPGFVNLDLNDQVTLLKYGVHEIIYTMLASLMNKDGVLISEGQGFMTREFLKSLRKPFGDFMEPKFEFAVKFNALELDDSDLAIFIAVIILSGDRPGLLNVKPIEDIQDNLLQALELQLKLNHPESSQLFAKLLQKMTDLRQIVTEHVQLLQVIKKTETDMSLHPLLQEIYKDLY
Method in brief: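 His-tagged PPARγ (or controls) was preincubated with compound for 20 minutes at room temperature, then 5 nM anti-His terbium antibody and 200 nM FITC-labeled SMRT-ID2 corepressor peptide (final) were added for a further hour. TR-FRET signal was normalized to percent response using 500 nM T0070907 and DMSO controls.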

SMILES	AC50 (His6-TEV-PPARγ-(234-505)) [µM]	pIC50 (UM-UC-9 engineered cells; Homo sapiens, UM-UC-9, 144 h)	pIC50 (UM-UC-9 engineered cells)
COc1cc(-c2cc(C(=O)N3CCC(C(=O)NC4CCOc5ccc(F)cc54)CC3)n[nH]2)c(Cl)cn1 (racemic) [Example 195, 1-(5-(5-chloro-2-methoxypyridin-4-yl)-1H-pyrazole-3-carbonyl)-N-(6-fluorochroman-4-yl)piperidine-4-carboxamide]	0.212	6.46	
COc1cc(-c2cc(C(=O)N3CCC(C(=O)NC4COC(C)(C)C4)CC3)n[nH]2)c(Cl)cn1 (racemic) [Example 213, 1-(5-(5-chloro-2-methoxypyridin-4-yl)-1H-pyrazole-3-carbonyl)-N (5,5-dimethyltetrahydrofuran-3-yl)piperidine-4-carboxamide]	0.571	5.79	
COc1cc(-c2cc(C(=O)N3CCC(C(=O)NCC4CC(F)(F)CO4)CC3)n[nH]2)c(Cl)cn1 (racemic) [Example 220, 1-(5-(5-chloro-2-methoxypyridin-4-yl)-1H-pyrazole-3-carbonyl)-N-((4,4-difluorotetrahydrofuran-2-yl)methyl)piperidine-4-carboxamide]	0.286	5.67	
COc1cc(-c2cc(C(=O)N3CCC(C(=O)NC4CCCc5nc(C)ncc54)CC3)n[nH]2)c(Cl)cn1 (racemic) [Example 224, 1-(5-(5-chloro-2-methoxypyridin-4-yl)-1H-pyrazole-3-carbonyl)-N-(2-methyl-5,6,7,8-tetrahydroquinazolin-5-yl)piperidine-4-carboxamide]	0.554	5.29	
COc1cc(-c2cc(C(=O)N3CCC(C(=O)NC4CCN(c5ccc(F)cc5)C4)CC3)n[nH]2)c(Cl)cn1 (racemic) [Example 253, 1-(5-(5-chloro-2-methoxypyridin-4-yl)-1H-pyrazole-3-carbonyl)-N-(1-(4-fluorophenyl)pyrrolidin-3-yl)piperidine-4-carboxamide]	0.051	6.41	
COc1cc(-c2cc(C(=O)N3CCC(C(=O)NCc4cccc(Cl)c4)CC3(C)C)n[nH]2)c(Cl)cn1 (racemic) [Example 255]	0.0633	6.82	
COc1cc(-c2cc(C(=O)N3CCC(C(=O)NC(C)c4ccc5[nH]nc(C)c5c4)CC3)n[nH]2)c(F)cn1 (racemic) [Example 281, 1-(5-(5-fluoro-2-methoxypyridin-4-yl)-1H-pyrazole-3-carbonyl)-N-(1-(3-methyl-1H-indazol-5-yl)ethyl)piperidine-4-carboxamide]	0.101	6.20	
COc1cc(-c2cc(C(=O)N3[C@@H]4CC[C@H]3C[C@H](C(=O)NC3CCC(O)(C(F)(F)C(F)(F)F)CC3)C4)n[nH]2)c(F)cn1 (mixture of isomers) [Example 301, (1R,3s,5S)-8-(5-(5-fluoro-2-methoxypyridin-, 1-yl)-1H-pyrazole-3-carbonyl)-N-(4-hydroxy-4-(perfluoroethyl)cyclohexyl)-8-azabicyclo[3.2.1]octane-3-carboxamide]	0.0159	7.13	
COc1cc(-c2cc(C(=O)N3CCC(C(=O)Nc4c(F)ccc5ccnn45)CC34CC4)n[nH]2)c(F)cn1 (racemic) [Example 468, (R)-4-(5-(5-fluoro-2-methoxypyridin-4-yl)-1H-pyrazole-3-carbonyl)-N-(6-fluoropyrazolo[1,5-a]pyridin-7-yl)-4-azaspiro[2.5]octane-7-carboxamide and (S)-4-(5-(5-fluoro-2-methoxypyridin-4-yl)-1H-pyrazole-3-carbonyl)-N-(6-fluoropyrazolo[1,5-a]pyridin-7-yl)-4-azaspiro[2.5]octane-7-carboxamide]	0.0083		7.10
O=C(NCc1ncc(F)cc1Cl)C1CCN(C(=O)c2cc(-c3cc(C4CC4)ncc3F)[nH]n2)C2(CC2)C1 (racemic) [Example 480, (S)—N-((3-chloro-5-fluoropyridin-2-yl)methyl)-4-(5-(2-cyclopropyl-5-fluoropyridin-4-yl)-1H-pyrazole-3-carbonyl)-4-azaspiro[2.5]octane-7-carboxamide and (R)—N-((3-chloro-5-fluoropyridin-2-yl)methyl)-4-(5-(2-cyclopropyl-5-fluoropyridin-4-yl)-1H-pyrazole-3-carbonyl)-4-azaspiro[2.5]octane-7-carboxamide]	0.0176		6.43
CCc1cc(-c2cc(C(=O)N3CCC(C(=O)NCc4ncc(F)cc4Cl)CC34CC4)n[nH]2)c(F)cn1 (racemic) [Example 483, (S)—N-((3-chloro-5-fluoropyridin-2-yl)methyl)-4-(5-(2-ethyl-5-fluoropyridin-4-yl)-1H-pyrazole-3-carbonyl)-4-azaspiro[2.5]octane-7-carboxamide and (R)—N-((3-chloro-5-fluoropyridin-2-yl)methyl)-4-(5-(2-ethyl-5-fluoropyridin-4-yl)-1H-pyrazole-3-carbonyl)-4-azaspiro[2.5]octane-7-carboxamide]	0.0062		7.35

The next lines start with results.

AC50 (His6-TEV-PPARγ-(234-505)) [µM]	SMILES	pIC50 (UM-UC-9 engineered cells; Homo sapiens, UM-UC-9, 144 h)	pIC50 (UM-UC-9 engineered cells)
0.202	COc1cc(-c2cc(C(=O)N3CCC(C(=O)NC4CCN(C)c5ccccc54)CC3)n[nH]2)c(Cl)cn1 (racemic) [Example 186, 1-(5-(5-chloro-2-methoxypyridin-4-yl)-1H-pyrazole-3-carbonyl)-N-(1-methyl-1,2,3,4-tetrahydroquinolin-4-yl)piperidine-4-carboxamide]	6.47	
0.838	COc1cc(-c2cc(C(=O)N3CCC(C(=O)NC4CCCc5cnccc54)CC3)n[nH]2)c(Cl)cn1 (racemic) [Example 191, 1-(5-(5-chloro-2-methoxypyridin-4-yl)-1H-pyrazole-3-carbonyl)-N-(5,6,7,8-tetrahydroisoquinolin-5-yl)piperidine-4-carboxamide]	5.70	
0.889	COc1cc(-c2cc(C(=O)N3CCC(C(=O)NC4CCN(c5ccccc5)C4=O)CC3)n[nH]2)c(Cl)cn1 (racemic) [Example 207, 1-(5-(5-chloro-2-methoxypyridin-4-yl)-1H-pyrazole-3-carbonyl)-N-(2-oxo-1-phenylpyrrolidin-3-yl)piperidine-4-carboxamide]	5.25	
0.0185	COc1cc(-c2cc(C(=O)N3CCC(C(=O)NC4CCN(c5ccccc5F)C4)CC3)n[nH]2)c(Cl)cn1 (racemic) [Example 222, 1-(5-(5-chloro-2-methoxypyridin-4-yl)-1H-pyrazole-3-carbonyl)-N-(1-(2-fluorophenyl)pyrrolidin-3-yl)piperidine-4-carboxamide]	6.68	
0.947	COc1cc(-c2cc(C(=O)N3CCC(C(=O)NC4CN(C)Cc5ccccc54)CC3)n[nH]2)c(Cl)cn1 (racemic) [Example 227, 1-(5-(5-chloro-2-methoxypyridin-4-yl)-1H-pyrazole-3-carbonyl)-N-(2-methyl-1,2,3,4-tetrahydroisoquinolin-4-yl)piperidine-4-carboxamide]	5.22	
0.999	COc1cc(-c2cc(C(=O)N3CCC(C(=O)NC4CS(=O)(=O)N(C)c5ccccc54)CC3)n[nH]2)c(Cl)cn1 (racemic) [Example 231, 1-(5-(5-chloro-2-methoxypyridin-4-yl)-1H-pyrazole-3-carbonyl)-N-(1-methyl-2,2-dioxido-3,4-dihydro-1H-benzo[c][1,2]thiazin-4-yl)piperidine-4-carboxamide]	5.26	
0.927	COc1cc(-c2cc(C(=O)N3CCC(C(=O)NC4CCCc5c4ccc(=O)n5C)CC3)n[nH]2)c(Cl)cn1 (racemic) [Example 234, 1-(5-(5-chloro-2-methoxypyridin-4-yl)-1H-pyrazole-3-carbonyl)-N-(1-methyl-2-oxo-1,2,5,6,7,8-hexahydroquinolin-5-yl)piperidine-4-carboxamide]	< 5.00	
0.466	COc1cc(-c2cc(C(=O)N3CCC(C(=O)NC4CCOc5ncccc54)CC3)n[nH]2)c(Cl)cn1 (racemic) [Example 236, 1-(5-(5-chloro-2-methoxypyridin-4-yl)-1H-pyrazole-3-carbonyl)-N (3,4-dihydro-2H-pyrano[2,3-b]pyridin-4-yl)piperidine-4-carboxamide]	5.27	
0.708	COc1cc(-c2cc(C(=O)N3CCC(C(=O)NC4C(=O)N(C)Cc5ccccc54)CC3)n[nH]2)c(Cl)cn1 (racemic) [Example 240, 1-(5-(5-chloro-2-methoxypyridin-4-yl)-1H-pyrazole-3-carbonyl)-N-(2-methyl-3-oxo-1,2,3,4-tetrahydroisoquinolin-4-yl)piperidine-4-carboxamide]	5.22	
0.605	COc1cc(-c2cc(C(=O)N3CCC(C(=O)NC4C(=O)NCc5ccccc54)CC3)n[nH]2)c(Cl)cn1 (racemic) [Example 244, 1-(5-(5-chloro-2-methoxypyridin-4-yl)-1H-pyrazole-3-carbonyl)-N-(3-oxo-1,2,3,4-tetrahydroisoquinolin-4-yl)piperidine-4-carboxamide]	5.25	
